Legend:
Format in all cases: cell-based
HCT116 = test: Methylene Blue Cell Growth Inhibition Assay, HCT116; conditions: Homo sapiens, HCT-116, 72 h, read-out: MEB HCT116 IC50
Description: (§1) Normal human foreskin fibroblasts (HFF), human colon (HCT116, RKO), lung (H460, A549) and breast (MCF7) tumor cell lines were cultured in high glucose DMEM (Life Technologies) containing 10% fetal bovine serum (FBS) at 37° C. in a humidified 5% CO2, 95% air incubator. Cells were harvested using trypsin/EDTA, counted using a haemocytometer, and plated in 100 μL of culture media per well, at the following densities, in a 96-well tissue culture plate (Falcon 3075): HFF 5,000 cells/well, HCT116 3,000 cells/well, RKO 2,500 cells/well, H460 2,500 cells/well, A549 5,000 cells/well, MCF7 4,000 cells/well. The next day, compounds were diluted in low glucose DMEM containing 100 μg/mL gentamicin, at twice the final required concentration, from 10 mM stock solutions in DMSO. 100 μL/well of these dilutions were added to the 100 μL of media currently in the assay plates. Medium containing 0.6% DMSO was added to control wells. The final concentration of DMSO in all wells was 0.3%. Cells were incubated at 37° C., 5% CO2 for 72 h. Medium was removed by aspiration. Cell biomass was estimated by staining cells with 80 μL per well methylene blue (Sigma M9140, 0.5% in 50:50 ethanol:water), and incubation at room temperature for 30-60 min. Stain was removed by aspiration and the plates rinsed by immersion in water, then air-dried. To release stain from the cells, 100 μL of solubilization solution was added (1% N-lauroyl sarcosine, Sodium salt, Sigma L5125, in PBS), and plates were shaken gently for about 30 min. Optical density at 620 nm was measured on a microplate reader. Percent inhibition of cell growth was calculated relative to vehicle treated control wells. Concentration of compound that inhibits 50% of cell growth (IC50) was interpolated using nonlinear regression (Levenberg-Marquardt) and the equation, y=Vmax*(1−(x/(K+x)))+Y2, where “K” was equal to the IC50.

RKO = test: Methylene Blue Cell Growth Inhibition Assay, RKO; conditions: Homo sapiens, 72 h, read-out: MEB RKO IC50
Description: as §1

HCT-116 = test: Cell-Titer Glo Cell Growth Inhibition Assay, HCT116; conditions: Homo sapiens, CellTiter-Glo, 72 h, read-out: CTG HCT116 IC50
Method in brief: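 Human tumour cells in RPMI1640 + 10% FBS, plated at 500 cells/well, rested overnight, then given two-fold compound dilutions (0.15% DMSO) for 72 h at 37° C, 5% CO2. CellTiter-Glo luminescence read against a day-0 plate; IC50 from 4- or 6-parameter fit after no-cell background subtraction.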

Colo 205 = test: Cell-Titer Glo Cell Growth Inhibition Assay, COLO205; conditions: Homo sapiens, CellTiter-Glo, 72 h, read-out: CTG COLO205 IC50
Description: (§2) A549-L (human lung), BT474 (human breast), Colo 205 (human colon), H1299 (human lung), Hela (human cervix), HCT-116 (human colon), HN5 (human head and neck), HT29 (human colon), LNCap (human prostate), MCF7 (human breast), MDA-MB468 (human breast), MX-1 (human breast), RPMI 8226 (human peripheral blood), SKOV3 (human ovary) and P388 (murine leukemia) cell lines were cultured in RPMI1640 containing 10% fetal bovine serum at 37° C. in a 5% CO2 incubator. Cell lines were split into T75 flasks (Falcon #353136) two to three days prior to assay set up at density which yields approximately 70-80% confluency at time of harvest for assay. Cells were harvested using 0.25% trypsin with EDTA (Glibco/Invitrogen #25200-056), Cell counts were performed on cell suspensions using Trypan Blue exclusion staining, cells were then plated in 105 uL of culture media per well at the following densities in 96 well Costar #3916 black flat bottom plates: All human cell lines were plated at 500 cells/well. P388 were plated at 250 cells/well. All plates were placed at 5% CO2 37° C. overnight and then test compounds were added the following day. One plate of each cell type is treated with CellTiter-Glo (Promega #G7573) for a day 0 proliferation measurement and read as described below. The test compounds are prepared in clear U bottom polypropylene 96 well plates (Falcon #35-1190 with consecutive two fold dilutions. 9 uL of these dilutions was added into each well of the cell plates. The final concentration of DMSO in all wells is 0.15%. Cells were incubated at 37° C., 5% CO2 for 72 h. Following 72 h of incubation with compounds each plate was developed and read. CellTiter-Glo reagent was added to assay plates using a volume equivalent to the cell culture volume in the wells. Plates were shaken for approximately two minutes and incubated at room temperature for approximately 15 min and the chemiluminescent signal is read on the Victor V or Envison 2100 reader. […] Concentration of compound that inhibited 50% of cell growth (IC50) was analysis by 4 or 6 parameter fit of data using XLfit, value of no cell addition was subtracted from all samples for background.

A549-L = test: Cell-Titer Glo Cell Growth Inhibition Assay, A549-L; conditions: Homo sapiens, CellTiter-Glo, 72 h, read-out: CTG A549-L IC50
Description: as §2

HT29 = test: Cell-Titer Glo Cell Growth Inhibition Assay, HT29; conditions: Homo sapiens, HT-29, CellTiter-Glo, 72 h, read-out: CTG HT29 IC50
Description: as §2

SMILES	IC50 (HCT116) [nM]	IC50 (RKO) [nM]	IC50 (HCT-116) [nM]	IC50 (Colo 205) [nM]	IC50 (A549-L) [nM]	IC50 (HT29) [nM]
C[C@@H](Oc1cc(-n2cnc3cc(-c4ccc(N5CCNCC5)nc4)ccc32)sc1C(N)=O)c1ccccc1C(F)(F)F [Example 1, 5-{5-[6-(1-piperazinyl)-3-pyridinyl]-1H-benzimidazol-1-yl}-3-({(1R)-1-[2-(trifluoromethyl)phenyl]ethyl}oxy)-2-thiophenecarboxamide]	100 to 1000	< 100	< 100	< 100	100 to 1000	< 100
C[C@@H](Oc1cc(-n2cnc3cc(-c4ccc(N5CCNCC5)nc4)ccc32)sc1C(N)=O)c1ccccc1Cl [Example 7, 3-{[(1R)-1-(2-Chlorophenyl)ethyl]oxy}-5-{5-[6-(1-piperazinyl)-3-pyridinyl]-1H-benzimidazol-1-yl}-2-thiophenecarboxamide]	100 to 1000	< 100	< 100	< 100	< 100	< 100
C[C@@H](Oc1cc(-n2cnc3cc(-c4cnn(C)c4)ccc32)sc1C(N)=O)c1ccccc1Cl [Example 9, 3-{[(1R)-1-(2-Chlorophenyl)ethyl]oxy}-5-[5-(1-methyl-1H-pyrazol-4-yl)-1H-benzimidazol-1-yl]-2-thiophenecarboxamide]	< 100	< 100	< 100	< 100	< 100	< 100
